System: hMet-S45Y-β-catenin HCC model
Test: GC-1 diet in hMet-S45Y-β-catenin HCC model
Assay type: in vivo, mice
Details: for increase in gene expression of deiodinase (RT-PCR, liver): p<0.001
Experimental: SBTT plasmids and HTVI have been described previously (Tao et al., Hepatology 2016, 64:1587-605). Briefly, […] pT3-EF5α-hMet-V5 and pT3-EF5α-S45Y-β-catenin-Myc combination along with the transposase in a ratio of 25:1 were diluted in 2 ml of normal saline (0.9% NaCl), filtered through 0.22 μm filter (Millipore), and injected into the lateral tail vein of 23 FVB mice that were around 6-week-old, in 5-7 seconds. These mice are referred henceforth as hMet-mutant-β-catenin mice. Four weeks after injection, hMet-mutant-β-catenin mice were randomized into two groups. One group was kept on basal diet (n=12) and another group was switched to GC-1-supplemented diet (5 mg/kg of diet, Medchem Express) (n=11). Animals on control diet were sacrificed at either 21 days (n=8) or 10 days (n=4) after initiation of diet. Similarly, animals on GC-1-diet were sacrificed at either 21 days (n=7) or 10 days (n=4) after initiation of the diet. The animals were given access to food and water ad libitum with a 12-hour light/dark daily cycle. One intraperitoneal injection of BrdU was performed on day 9 during 10 days of GC-1 or basal diet treatment and livers were harvested 24 hours later. Guidelines for the Care and Use of Laboratory Animals were followed.
Four micron formalin-fixed sections were deparaffinized in graded xylene and alcohol and rinsed in PBS. To block endogenous peroxidase activity, the sections were incubated in 3% hydrogen peroxide (Sigma). For antigen retrieval, slides were microwaved in citrate buffer followed by blocking with Superblock (ScyTek Laboratories, Logan, Utah) for 10 minutes. Sections were incubated overnight at 4° C. or 1 hour room temperature in the following antibodies: cyclin-D1 (Thermo-Scientific, Fremont, Calif.), Glutamine synthetase, Ki-67, Myc-tag and CD45 (Santa Cruz Biotechnology, Dallas, Tex.). Sections were then incubated with species-specific secondary horseradish peroxidase-conjugated antibody for 30 minutes at room temperature. Sections stained with antibodies were incubated with streptavidin-biotin and signal was detected with DAB. Cell death was evaluated in liver sections by terminal deoxynucleotidyl transferase dUTP nick end labeling (TUNEL) using manufacturer's instructions available with the kit (EMD-Millipore). BrdU was stained with mouse antibody (Becton Dickinson, Franklin Lakes, N.J.) as previously described (Alvarado et al., Gene Expr 2016, 17:19-34). Briefly, tissue sections were deparaffinized, exposed to 0.3% hydrogen peroxide in deionized water for 10 minutes to block endogenous peroxidase, treated with 2N HCl, incubated with trypsin 0.1% for 20 minutes and then with normal goat serum for 20 minutes at room temperature. Sections were then incubated overnight in cold room with anti-BrdU monoclonal antibody, followed by biotinylated goat anti-mouse IgG. DAB kit was then applied, and sections were counterstained with hematoxylin.
For quantification of Ki-67 immunohistochemistry (IHC), pictures were taken at 200× magnification from either tumor or non-tumor areas in the same slide. Each picture was separated into DAB staining channel and hematoxylin staining channel by Color Deconvolution using Imagej Fiji. To quantify the number of Ki-67 positive nuclei on each picture, the DAB staining on the DAB channel was highlighted with the threshold of 48 and then quantified with Analyze Particles. All particles of areas smaller than 100 pixels were excluded. To quantify the total number of nuclei on each picture the hematoxylin staining on the hematoxylin channel was highlighted with the threshold of 205 and then quantified with Analyze Particles with similar exclusion of small areas. The percentage of Ki-67-positive nuclei on each picture was calculated by dividing the number of particles counted from DAB channel by the number of particles counted from the hematoxylin channel. […]

## Cc1cc(OCC(=O)O)cc(C)c1Cc1ccc(O)c(C(C)C)c1 [GC-1, Sobetirome]
10-days of GC-1-diet vs basal diet
  increase in gene expression of deiodinase (RT-PCR, liver): around 10 fold
21-days of GC-1-diet vs basal diet
  increase in gene expression of deiodinase (RT-PCR, liver): around 40 fold
10 days GC-1 diet
  cyclin-D1 and GS IHC of tumors: continued to be positive
  tumor foci by H&E and Myc-tag staining: Smaller and fewer tumor foci
10 days GC-1 diet vs basal diet
  gross liver appearance: indistinguishable
10 days GC-1 diet vs basal diet, p=0.0022
  liver weight to body weight ratio (LW/BW): significant decrease
10 days GC-1 vs basal diet
  BrdU and Ki-67 IHC within tumor foci: notable decrease
  GS levels, WB: modest decreases
  Ki-67-positive cell numbers in non-tumor areas: No differences
  TUNEL-positive cells: Comparable numbers
  cyclin-D1 levels, WB: marginal decreases
  number of CD45-positive cells (inflammation): No differences
  total and active β-catenin levels, WB: modest decrease in the levels of total but not active β-catenin
10 days GC-1 vs basal diet, p<0.01
  percentage of Ki-67-positive cells within tumor nodules: significant decrease
10 days GC-1 vs control
  p-AKT levels, WB: did not have any effect
  p-ERK1 and p-ERK2, WB: dramatically decreased
  p-Met (Tyr 1234/1235), WB, two independent antibodies: profound decrease
  p-STAT3, WB: profound decrease
  total AKT levels, WB: no change
  total ERK levels, WB: unaffected
  total Met levels, WB: modestly decreased
  total STAT3 levels, WB: overall reduced
21 days GC-1 diet
  Myc-tag levels by Western blot: modest decrease
  cyclin-D1 IHC of tumor nodules: strongly positive
  gross liver appearance: relatively smooth surface and smaller nodules
  tumor nodules by H&E and Myc-tag IHC: notably smaller tumor nodules
21 days GC-1 diet vs basal diet, p=0.0506
  liver weight to body weight ratio (LW/BW): almost significant decrease
21 days GC-1 vs basal diet
  GS levels, WB: modest decrease
  Ki-67-positive cells in non-tumor areas: insignificant
  cyclin-D1 levels, WB: no change
  p-AKT levels, WB: comparable levels
  p-Met (Tyr 1234/1235), WB: dramatic decrease
  p-STAT3 levels, WB: striking decrease
  percentage of Ki-67 positive tumor cells within nodules: insignificant differences
  total AKT levels, WB: marginally increased
  total Met levels, WB: only marginally and variably decreased
  total STAT3 levels, WB: relatively unaltered
  total and active β-catenin levels, WB: remained unaltered
  total and p-ERK1 and total and p-ERK2, WB: notably decreased
21 days, basal diet vs GC-1
  TUNEL-positive cells (cell death): More TUNEL-positive cells were evident in the basal diet group
21 days, both groups
  Glutamine synthetase (GS) IHC of tumors: uniformly and comparably positive
